Measurements published in patent US8722849B2, “Polypeptides” (Novo Nordisk A/S, priority 2011, dated 2014).
≈ marks a conversion by molar mass, not a printed value. Where two headings read alike, the source gives them in different places. Starred links: 1 amine or outer side, 2 acyl side, 3 side chain; linkers in the order of their positions; H or OH if unused. Positions of bridges follow the written chain, without caps; N, C: chain ends. Non-standard residues stand in square brackets, D forms with d. Residues, ends and D or L forms follow the SMILES beside them. *: point of attachment. C20 diacid = O=C(O)CCCCCCCCCCCCCCCCCCC(=O)*; C18 diacid = O=C(O)CCCCCCCCCCCCCCCCC(=O)*; γGlu = O=C(O)[C@H](CCC(=O)[*:2])N[*:1]; Orn = NCCC[C@H](N)C(=O)O; AEEA = NCCOCCOCC(=O)O

Key:
[1] = molecular target: T1, rat amylin 3(a) receptor (rat calcitonin(a) receptor + rat RAMP3) (Rattus norvegicus, UniProt P32214+Q9JJ73); assay: Assay (II)b functional cAMP FlashPlate assay, rat amylin receptor; format: cell-based; conditions: Table 11
T1 construct: expressed in transfected cells; host or cells: BHK tk'ts 13
T1 sequence (P32214 25-479 isoform P32214-2 limits assumed): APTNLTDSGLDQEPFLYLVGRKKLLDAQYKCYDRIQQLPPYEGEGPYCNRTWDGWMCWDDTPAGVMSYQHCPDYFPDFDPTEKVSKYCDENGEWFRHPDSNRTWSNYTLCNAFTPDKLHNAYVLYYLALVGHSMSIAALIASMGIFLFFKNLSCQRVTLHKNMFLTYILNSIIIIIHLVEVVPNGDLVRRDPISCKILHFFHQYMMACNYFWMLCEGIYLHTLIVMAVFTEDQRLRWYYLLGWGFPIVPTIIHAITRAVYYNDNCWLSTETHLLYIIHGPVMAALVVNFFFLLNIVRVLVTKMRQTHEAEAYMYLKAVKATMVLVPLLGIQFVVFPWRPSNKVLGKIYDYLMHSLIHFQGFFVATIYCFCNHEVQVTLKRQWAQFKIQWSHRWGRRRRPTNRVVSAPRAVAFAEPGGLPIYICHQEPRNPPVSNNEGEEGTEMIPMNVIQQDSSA
T1 sequence (Q9JJ73 23-147 partner): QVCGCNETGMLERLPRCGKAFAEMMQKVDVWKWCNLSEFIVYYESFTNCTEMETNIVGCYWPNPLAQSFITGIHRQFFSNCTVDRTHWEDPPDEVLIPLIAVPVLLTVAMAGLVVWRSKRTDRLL
Procedure, shortened: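 cAMP accumulation in transiently transfected BHK tk'ts 13 cells, 100.000 cells/well, expressing rat calcitonin(a) receptor or its RAMP3 co-expression form (amylin 3(a)): 30 min stimulation with IBMX, 24 hours post-transfection. Readout by competition of cellular versus radiolabelled cAMP in FlashPlates, scintillation counted after 3 h.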

[2] = Assay (III) ThT fibrillation assay for physical stability; format: physicochemical
Procedure, shortened: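 Freshly prepared formulations, pH-adjusted, with 1 μM ThT; four or eight replicates incubated at 37 °C under 960 rpm orbital shaking. Fluorescence (ex 444/em 485 nm) read every 20 min; […]. Peptide concentration measured by RP-HPLC before and after the run.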

[3] = Assay (IV) determination of solubility; format: physicochemical
Procedure, shortened: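 Stock ~500 nmol/ml in water; 1:1 with 100 mM buffer, pH 3.0–8.0 (glycylglycine ≤5.0, bistrispropane ≥6.0); 18 h RT; spin; HPLC quantitation of soluble polypeptide.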

[4] = bistrispropane buffer, pH 6, pH 6.0, read-out: Solubility pH 6.0
[5] = bistrispropane buffer, pH 6.5, pH 6.5, read-out: Solubility pH 6.5
[6] = bistrispropane buffer, pH 7, pH 7.0, 18 hours at room temperature, Table 3, read-out: Solubility pH 7.0
[7] = bistrispropane buffer, pH 7, pH 7.0, read-out: Solubility pH 7.0
[8] = bistrispropane buffer, pH 7.5, pH 7.5, read-out: Solubility pH 7.5
[9] = bistrispropane buffer, pH 8, pH 8.0, read-out: Solubility pH 8.0
[10] = glycylglycine buffer, pH 3, pH 3.0, read-out: Solubility pH 3.0
[11] = glycylglycine buffer, pH 4, pH 4.0, 18 hours at room temperature, Table 2, read-out: Solubility pH 4.0
[12] = glycylglycine buffer, pH 4, pH 4.0, read-out: Solubility pH 4.0
[13] = glycylglycine buffer, pH 5, pH 5.0, read-out: Solubility pH 5.0

With `CC[C@H](C)[C@H](NC(=O)[C@@H]1CCCN1C(=O)CNC(=O)[C@H](Cc1ccccc1)NC(=O)[C@H](CC(N)=O)NC(=O)[C@H](CC(N)=O)NC(=O)[C@H](CO)NC(=O)[C@H](CO)NC(=O)[C@H](Cc1c[nH]cn1)NC(=O)[C@H](Cc1c[nH]cn1)NC(=O)[C@H](CC(C)C)NC(=O)[C@H](Cc1ccccc1)NC(=O)[C@H](CCC(=O)O)NC(=O)[C@H](C)NC(=O)[C@H](CC(C)C)NC(=O)[C@H](CCCNC(=N)N)NC(=O)[C@H](CCC(N)=O)NC(=O)[C@@H](NC(=O)[C@H](C)NC(=O)[C@@H]1CSSC[C@H](NC(=O)[C@H](CCCNC(=N)N)NC(=O)CNC(=O)CC[C@H](NC(=O)CCCCCCCCCCCCCCCCCCC(=O)O)C(=O)O)C(=O)N[C@@H](CC(N)=O)C(=O)N[C@@H]([C@@H](C)O)C(=O)N[C@@H](C)C(=O)N[C@@H]([C@@H](C)O)C(=O)N1)[C@@H](C)O)C(=O)N[C@@H](CC(C)C)C(=O)N1CCC[C@H]1C(=O)N1CCC[C@H]1C(=O)N[C@H](C(=O)N[C@@H](CC(N)=O)C(=O)N[C@H](C(=O)NCC(=O)N[C@@H](CO)C(=O)N[C@@H](CC(N)=O)C(=O)N[C@H](C(=O)N1CCC[C@H]1C(N)=O)[C@@H](C)O)C(C)C)[C@@H](C)O` [Example 101, N-alpha-[(S)-4-Carboxy-4-(19-carboxynonadecanoylamino)butyryl]-Gly-[Arg1,Glu14,His17,Pro37]-pramlintide] ({C20 diacid-γGlu}-GRCNTATCATQRLAEFLHHSSNNFGPILPPTNVGSNTP-NH2; disulfide 3-8 (inferred)) the EC50 [1] was 0.075 nM, the “ThT pH 4.0 lag time” value ([2]; Table 8) was greater than 45 h and the “ThT pH 4.0 lag time” value ([2]; Table 9) was greater than 45 h. For the same molecule, the “ThT pH 4.0 lag time” value ([2]; ThT fibrillation assay) was greater than 45 h, the “ThT pH 4.0 lag time (h)” value ([2]; ThT fibrillation assay) was greater than 45 h and the solubility at 18 h [3, 4] was greater than 200 µM. It also gave a solubility at 18 h [3, 5] greater than 200 µM, a solubility at 18 h [3, 6] greater than 200 µM and a solubility at 18 h ([3]; bistrispropane buffer, pH 7, pH 7.0, Table 8, read-out: Solubility pH 7.0) greater than 200 µM. For the same molecule, the solubility at 18 h ([3]; bistrispropane buffer, pH 7, pH 7.0, Table 9, read-out: Solubility pH 7.0) was greater than 200 µM, the solubility at 18 h [3, 7] was greater than 200 µM and the solubility at 18 h ([3]; bistrispropane buffer, pH 7.5, pH 7.5, Table 9, read-out: Solubility pH 7.5) was greater than 200 µM. The solubility at 18 h [3, 8] was greater than 200 µM, the solubility at 18 h [3, 9] was greater than 200 µM and the solubility at 18 h [3, 10] was greater than 200 µM. The solubility at 18 h [3, 11] was greater than 200 µM, the solubility at 18 h [3, 12] was greater than 200 µM and the solubility at 18 h [3, 13] was greater than 200 µM.

For `CC[C@H](C)[C@H](NC(=O)[C@@H]1CCCN1C(=O)CNC(=O)[C@H](Cc1ccccc1)NC(=O)[C@H](CC(N)=O)NC(=O)[C@H](CC(N)=O)NC(=O)[C@H](CO)NC(=O)[C@H](CO)NC(=O)[C@H](CCCNC(=N)N)NC(=O)[C@H](Cc1c[nH]cn1)NC(=O)[C@H](CC(C)C)NC(=O)[C@H](Cc1ccccc1)NC(=O)[C@H](CCC(=O)O)NC(=O)[C@H](C)NC(=O)[C@H](CC(C)C)NC(=O)[C@H](CCCNC(=N)N)NC(=O)[C@H](CCC(N)=O)NC(=O)[C@@H](NC(=O)[C@H](C)NC(=O)[C@@H]1CSSC[C@H](NC(=O)[C@H](CCCN)NC(=O)[C@@H](CCCNC(=N)N)NC(=O)[C@@H](CCCNC(=N)N)NC(=O)COCCOCCNC(=O)COCCOCCNC(=O)CC[C@H](NC(=O)CCCCCCCCCCCCCCCCC(=O)O)C(=O)O)C(=O)N[C@@H](CC(N)=O)C(=O)N[C@@H]([C@@H](C)O)C(=O)N[C@@H](C)C(=O)N[C@@H]([C@@H](C)O)C(=O)N1)[C@@H](C)O)C(=O)N[C@@H](CC(C)C)C(=O)N1CCC[C@H]1C(=O)N1CCC[C@H]1C(=O)N[C@H](C(=O)N[C@@H](CC(N)=O)C(=O)N[C@H](C(=O)NCC(=O)N[C@@H](CO)C(=O)N[C@@H](CC(N)=O)C(=O)N[C@H](C(=O)N[C@@H](Cc1ccc(O)cc1)C(N)=O)[C@@H](C)O)C(C)C)[C@@H](C)O` [Example 120, N-alpha-[2-(2-{2-[2-(2-{2-[(S)-4-Carboxy-4-(17-carboxyheptadecanoylamino)butyrylamino]ethoxy}ethoxy)acetylamino]ethoxy}ethoxy)acetyl]-D-Arg-D-Arg-[Orn1,Glu14,His17,Arg18]-pramlintide] ({C18 diacid-γGlu-AEEA-AEEA}-[dR][dR][Orn]CNTATCATQRLAEFLHRSSNNFGPILPPTNVGSNTY-NH2; disulfide 4-9 (inferred); C-terminus assumed), the EC50 [1] was 0.033 nM, the “ThT pH 4.0 lag time (h)” value ([2]; ThT fibrillation assay) was 22 h and the solubility at 18 h [3, 4] was greater than 200 µM. It also gave a solubility at 18 h [3, 5] greater than 200 µM, a solubility at 18 h [3, 6] greater than 200 µM and a solubility at 18 h [3, 7] greater than 200 µM. The solubility at 18 h [3, 8] was greater than 200 µM, the solubility at 18 h [3, 9] was 197 µM (≈ 992 µg/mL) and the solubility at 18 h [3, 10] was greater than 200 µM. For the same molecule, the solubility at 18 h [3, 11] was greater than 200 µM, the solubility at 18 h [3, 12] was greater than 200 µM and the solubility at 18 h [3, 13] was greater than 200 µM.
